Legend:
human ADAMTS-5 = human ADAMTS-5 (Homo sapiens (Human), UniProt Q9UNA0); conditions: read-out: hADAMTS-5 potency IC50
Experimental: Finally, the fluorescence is read on the Envision (Perkin Elmer) after an incubation of 90 min at 37° C.

human TACE = human TACE (Homo sapiens (Human), UniProt P78536); conditions: read-out: TACE potency IC50
Chain of human TACE (P78536 whole entry, looked up, change not shown): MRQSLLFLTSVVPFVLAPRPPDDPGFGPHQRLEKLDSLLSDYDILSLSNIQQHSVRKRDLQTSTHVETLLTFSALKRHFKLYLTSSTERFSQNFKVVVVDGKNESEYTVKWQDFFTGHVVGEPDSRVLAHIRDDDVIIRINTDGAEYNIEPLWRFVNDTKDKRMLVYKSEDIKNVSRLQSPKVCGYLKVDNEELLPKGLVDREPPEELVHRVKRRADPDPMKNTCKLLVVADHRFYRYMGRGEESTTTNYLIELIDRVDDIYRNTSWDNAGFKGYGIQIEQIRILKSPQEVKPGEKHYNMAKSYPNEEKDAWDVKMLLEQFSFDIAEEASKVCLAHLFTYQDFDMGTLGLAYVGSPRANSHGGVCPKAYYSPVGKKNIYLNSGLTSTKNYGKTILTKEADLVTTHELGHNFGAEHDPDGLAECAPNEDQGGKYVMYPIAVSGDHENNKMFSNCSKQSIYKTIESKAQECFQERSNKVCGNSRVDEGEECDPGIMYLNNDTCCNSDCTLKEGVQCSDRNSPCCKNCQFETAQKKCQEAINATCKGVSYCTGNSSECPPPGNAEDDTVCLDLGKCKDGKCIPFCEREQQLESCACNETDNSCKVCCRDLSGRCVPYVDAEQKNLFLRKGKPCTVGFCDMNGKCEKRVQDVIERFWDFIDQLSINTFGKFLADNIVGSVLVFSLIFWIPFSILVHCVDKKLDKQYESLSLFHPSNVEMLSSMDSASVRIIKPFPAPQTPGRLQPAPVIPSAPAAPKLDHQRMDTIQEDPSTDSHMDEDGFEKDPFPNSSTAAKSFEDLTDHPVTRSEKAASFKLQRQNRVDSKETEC

Chain of human ADAMTS-5 (Q9UNA0 262-930): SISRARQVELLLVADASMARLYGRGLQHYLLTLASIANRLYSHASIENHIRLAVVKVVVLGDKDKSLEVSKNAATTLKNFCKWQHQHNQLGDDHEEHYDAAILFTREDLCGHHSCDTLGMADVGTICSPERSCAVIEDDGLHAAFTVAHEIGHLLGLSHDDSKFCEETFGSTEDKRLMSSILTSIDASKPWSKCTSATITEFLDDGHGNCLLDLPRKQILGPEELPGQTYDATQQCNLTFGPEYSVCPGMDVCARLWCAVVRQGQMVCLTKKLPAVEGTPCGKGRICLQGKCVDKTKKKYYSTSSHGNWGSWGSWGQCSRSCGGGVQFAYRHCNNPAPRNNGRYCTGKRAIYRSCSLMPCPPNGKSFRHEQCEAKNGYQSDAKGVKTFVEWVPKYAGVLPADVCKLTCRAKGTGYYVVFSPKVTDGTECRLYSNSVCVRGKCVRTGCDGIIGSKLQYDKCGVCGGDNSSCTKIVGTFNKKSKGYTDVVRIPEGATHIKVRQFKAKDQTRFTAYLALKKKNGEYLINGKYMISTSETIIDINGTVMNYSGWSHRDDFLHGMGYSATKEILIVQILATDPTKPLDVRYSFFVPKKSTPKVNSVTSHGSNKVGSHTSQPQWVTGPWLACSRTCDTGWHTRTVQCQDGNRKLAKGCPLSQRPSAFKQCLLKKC

SMILES	IC50 (human ADAMTS-5)	IC50 (human TACE)
C[C@H]1CN(C(=O)CCC2(C3CC3)NC(=O)NC2=O)CCN1c1cccc(-c2cnn(C)c2)c1 (stereo partly drawn) [compound 283, 5-cyclopropyl-5-[3-[(3S)-3-methyl-4-[3-(1-methylpyrazol-4-yl)phenyl]piperazin-1-yl]-3-oxo-propyl]imidazolidine-2,4-dione]	1080 nM	> 20000 nM
Cc1noc(C)c1-c1cccc(N2CCN(C(=O)CCC3(C4CC4)NC(=O)NC3=O)C[C@@H]2C)c1 (stereo partly drawn) [compound 369, 5-cyclopropyl-5-[3-[(3S)-4-[3-(3,5-dimethylisoxazol-4-yl)phenyl]-3-methyl-piperazin-1-yl]-3-oxo-propyl]imidazolidine-2,4-dione]	1080 nM	> 20000 nM
C[C@H]1CN(C(=O)CC[C@@]2(C)NC(=O)NC2=O)CCN1c1ccc(Cl)c(C(F)(F)F)c1 [compound 472, (5R)-5-[3-[(3S)-4-[4-chloro-3-(trifluoromethyl)phenyl]-3-methyl-piperazin-1-yl]-3-oxo-propyl]-5-methyl-imidazolidine-2,4-dione]	899 nM	> 4000 nM
C[C@H]1CN(C(=O)CCC2(c3cn(C)cn3)NC(=O)NC2=O)CCN1c1cc(Cl)cc(Cl)c1 (stereo partly drawn) [compound 466, 5-[3-[(3S)-4-(3,5-dichlorophenyl)-3-methyl-piperazin-1-yl]-3-oxo-propyl]-5-(1-methylimidazol-4-yl)imidazolidine-2,4-dione]	55 nM	2640 nM
CCC1(CC(C)C(=O)N2CCN(c3ccc(F)c(Cl)c3)[C@@H](C)C2)NC(=O)NC1=O (stereo partly drawn) [compound 444, 5-(3-((S)-4-(3-chloro-4-fluorophenyl)-3-methylpiperazin-1-yl)-2-methyl-3-oxopropyl)-5-ethylimidazolidine-2,4-dione]	25 nM	> 4000 nM
Cc1nc(N2CCN(C(=O)CCC3(C4CC4)NC(=O)NC3=O)C[C@@H]2C)no1 (stereo partly drawn) [compound 344, 5-cyclopropyl-5-[3-[(3S)-3-methyl-4-(5-methyl-1,2,4-oxadiazol-3-yl)piperazin-1-yl]-3-oxo-propyl]imidazolidine-2,4-dione]	> 20000 nM	> 20000 nM
C[C@H]1CN(C(=O)CCC2(C3CC3)NC(=O)NC2=O)CCN1c1ccc(F)cc1 (stereo partly drawn) [compound 300, 5-cyclopropyl-5-[3-[(3S)-4-(4-fluorophenyl)-3-methyl-piperazin-1-yl]-3-oxo-propyl]imidazolidine-2,4-dione]	140 nM	> 20000 nM
CC(CC1(C)NC(=O)NC1=O)C(=O)N1C[C@H](C)N(c2cc(Cl)cc(Cl)c2)[C@@H](C)C1 (stereo partly drawn) [compound 271, 5-[3-[(3S,5S)-4-(3,5-dichlorophenyl)-3,5-dimethyl-piperazin-1-yl]-2-methyl-3-oxo-propyl]-5-methyl-imidazolidine-2,4-dione]	1300 nM	> 20000 nM
COCC1(CC(C)C(=O)N2CCN(c3cc(F)c(Cl)c(F)c3)CC2)NC(=O)NC1=O (centres unmarked) [compound 279, 5-[3-[4-(4-chloro-3,5-difluoro-phenyl)piperazin-1-yl]-2-methyl-3-oxo-propyl]-5-(methoxymethyl)imidazolidine-2,4-dione]	19 nM	2990 nM
C[C@H]1CN(C(=O)CCC2(C3CC3)NC(=O)NC2=O)CCN1c1cnccn1 (stereo partly drawn) [compound 286, 5-cyclopropyl-5-[3-[(3S)-3-methyl-4-pyrazin-2-yl-piperazin-1-yl]-3-oxo-propyl]imidazolidine-2,4-dione]	> 4000 nM	> 20000 nM
COc1ccc(C2(CCC(=O)N3CCN(c4cc(F)cc(F)c4)[C@@H](C)C3)NC(=O)NC2=O)cn1 (stereo partly drawn) [compound 356, 5-[3-[(3S)-4-(3,5-difluorophenyl)-3-methyl-piperazin-1-yl]-3-oxo-propyl]-5-(6-methoxy-3-pyridyl)imidazolidine-2,4-dione]	40 nM	> 4000 nM
C[C@H]1CN(C(=O)CCC2(C3CC3)NC(=O)NC2=O)CCN1c1cnc2ccn(C)c2c1 (stereo partly drawn) [compound 337, 5-cyclopropyl-5-[3-[(3S)-3-methyl-4-(1-methylpyrrolo[3,2-b]pyridin-6-yl)piperazin-1-yl]-3-oxo-propyl]imidazolidine-2,4-dione]	764 nM	> 20000 nM
COCC1(CC(C)C(=O)N2CCN(c3cc(F)c(Cl)c(F)c3)CC2)NC(=O)NC1=O (centres unmarked) [compound 448]	19 nM	2990 nM
C[C@H]1CN(C(=O)CCC2(c3cccnc3)NC(=O)NC2=O)CCN1c1ccc(Cl)c(Cl)c1 (stereo partly drawn) [compound 453, 5-[3-[(3S)-4-(3,4-dichlorophenyl)-3-methyl-piperazin-1-yl]-3-oxo-propyl]-5-(3-pyridyl)imidazolidine-2,4-dione]	36 nM	3180 nM
Cc1ccc(C2(CCC(=O)N3CCN(c4cc(Cl)cc(Cl)c4)[C@@H](C)C3)NC(=O)NC2=O)cn1 (stereo partly drawn) [compound 384, 5-[3-[(3S)-4-(3,5-dichlorophenyl)-3-methyl-piperazin-1-yl]-3-oxo-propyl]-5-(6-methyl-3-pyridyl)imidazolidine-2,4-dione]	60 nM	2230 nM
Cc1noc(N2CCN(C(=O)CCC3(C4CC4)NC(=O)NC3=O)C[C@@H]2C)n1 (stereo partly drawn) [compound 352, 5-cyclopropyl-5-[3-[(3S)-3-methyl-4-(3-methyl-1,2,4-oxadiazol-5-yl)piperazin-1-yl]-3-oxo-propyl]imidazolidine-2,4-dione]	> 20000 nM	> 20000 nM
CC(CC1(CN2CCC(F)(F)C2)NC(=O)NC1=O)C(=O)N1CCN(c2cc(Cl)cc(Cl)c2)CC1 (centres unmarked) [compound 252, 5-[3-[4-(3,5-dichlorophenyl)piperazin-1-yl]-2-methyl-3-oxo-propyl]-5-[(3,3-difluoropyrrolidin-1-yl)methyl]imidazolidine-2,4-dione]	67 nM	2690 nM
Cc1ccc(-c2cccc(N3CCN(C(=O)CCC4(C5CC5)NC(=O)NC4=O)C[C@@H]3C)c2)cn1 (stereo partly drawn) [compound 324, 5-cyclopropyl-5-[3-[(3S)-3-methyl-4-[3-(6-methyl-3-pyridyl)phenyl]piperazin-1-yl]-3-oxo-propyl]imidazolidine-2,4-dione]	407 nM	> 4000 nM
C[C@H]1CN(C(=O)CCC2(C3CC3)NC(=O)NC2=O)CCN1c1ccc2[nH]ccc2c1 (stereo partly drawn) [compound 274, 5-cyclopropyl-5-[3-[(3S)-4-(1H-indol-5-yl)-3-methyl-piperazin-1-yl]-3-oxo-propyl]imidazolidine-2,4-dione]	> 4000 nM	> 20000 nM
C[C@H]1CN(C(=O)CCC2(c3ncccn3)NC(=O)NC2=O)CCN1c1ccc(Cl)c(Cl)c1 (stereo partly drawn) [compound 462, 5-[3-[(3S)-4-(3,4-dichlorophenyl)-3-methyl-piperazin-1-yl]-3-oxo-propyl]-5-pyrimidin-2-yl-imidazolidine-2,4-dione]	22 nM	> 4000 nM
C[C@H]1CN(C(=O)C(CO)CC2(C)NC(=O)NC2=O)CCN1c1cccc(F)c1 (stereo partly drawn) [Cpd 268, 5-[3-[(3S)-4-(3-fluorophenyl)-3-methyl-piperazin-1-yl]-2-(hydroxymethyl)-3-oxo-propyl]-5-methyl-imidazolidine-2,4-dione]	62 nM	> 4000 nM
O=C1NC(=O)C(CCC(=O)N2CCN(c3ccncc3)CC2)(C2CC2)N1 (centres unmarked) [compound 278, 5-cyclopropyl-5-[3-oxo-3-[4-(4-pyridyl)piperazin-1-yl]propyl]imidazolidine-2,4-dione]	> 20000 nM	> 20000 nM

Reference: US9926281B2 (priority 2014, dated 2018)
